EPA's ToxValDB 9.5 (doi:10.2903/j.efsa.2016.4491)

Key:
Poecilus cupreus = assay: LR50; higher = less toxic; settings: not reported; mortality
Daphnia magna = settings: chronic/long-term; duration: 21 days; reproduction
Canidae = settings: chronic, oral, Dog Other, clinical signs
Bibionidae = settings: chronic/long-term; duration: 28 days

With `CC[C@H](C)[C@H]1O[C@]2(C=C[C@@H]1C)C[C@@H]1C[C@@H](C/C=C(\C)[C@@H](O[C@H]3C[C@H](OC)[C@@H](O[C@H]4C[C@H](OC)[C@@H](O)[C@H](C)O4)[C@H](C)O3)[C@@H](C)/C=C/C=C3\CO[C@@H]4[C@H](O)C(C)=C[C@@H](C(=O)O1)[C@]34O)O2.CO[C@H]1C[C@H](O[C@H]2[C@H](C)O[C@@H](O[C@@H]3/C(C)=C/C[C@@H]4C[C@@H](C[C@]5(C=C[C@H](C)[C@@H](C(C)C)O5)O4)OC(=O)[C@@H]4C=C(C)[C@@H](O)[C@H]5OC/C(=C\C=C\[C@@H]3C)[C@]54O)C[C@@H]2OC)O[C@@H](C)[C@@H]1O` [Abamectin] the LR50 (Poecilus cupreus) was > 58 g/ha, the LD50 (Anas platyrhynchos; acute, oral, unspecified, mortality) was ≤ 77 mg/kg-day and the NOEC (Anas platyrhynchos; chronic/long-term, M) was 1.33 mg/kg-day. It also gave an LC50 (Anas platyrhynchos; short-term, oral, feed, mortality) of 48.6 mg/kg-day, an NOEC (Daphnia magna) of 1e-05 mg/L and an NOAEL (Canidae; duration: 18 weeks) of 0.25 mg/kg-day. The NOAEL (Canidae; duration: 53 weeks) was 0.25 mg/kg-day, the LD50 (Oncorhynchus mykiss; acute, duration: 96 hours, mortality) was 0.0036 mg/L and the NOEC (Oncorhynchus mykiss; chronic/long-term, duration: 28 days) was 0.00052 mg/L. The LC50 (Tagia sp.; acute, duration: 14 days, mortality) was 33 mg/kg, the NOEC (Tagia sp.; not reported) was ≥ 0.72 mg/kg and the NOEC (Bibionidae) was 8.1e-05 mg/L. For the same molecule, the NOAEL (Rattus norvegicus; acute, clinical signs) was 0.5 mg/kg-day, the LD50 (Rattus norvegicus; acute, mortality) was 8.7 mg/kg and the NOEC (Rattus norvegicus; chronic, oral) was 0.12 mg/kg-day.
